Tested on: MCF-7 cells
Experiment: Epifluorescence microscopy, triple staining MDC / annexin V-FITC / propidium iodide
Type: cell-based, human
Details: Bp4eT 10 or 100 nM 72 h, rapamycin 1 nM 30 min
Experimental: Markers used to assess autophagy/apoptosis/necrosis in MCF-7 cells and changes of lysosomal and mitochondrial morphology were observed using an Eclipse Ti inverted epifluorescence microscope (Nikon, Tokyo, Japan), that was equipped with a cooled digital camera Zyla 5.5 sCMOS (Andor Technology, Belfast, UK), and NIS-Elements C 4.1 software (Laboratory Imaging, Prague, Czech Republic). The MCF-7 cells were seeded in 6-well plates with cover slips on the bottom at a density of 150,000 cells/well and incubated as described above in the presence or absence of 10 or 100 nM Bp4eT.
To assess the mechanism of cellular death after incubation with Bp4eT, triple staining with monodansyl cadaverine (MDC; 50 μM; λex = 390 nm; λem = 455 nm; Sigma-Aldrich), annexin V-FITC (5 μL/mL; λex = 495 nm; λem = 519 nm; Invitrogen, Carlsbad, CA, USA), and propidium iodide (5 μg/mL; λex = 560 nm; λem = 630 nm) was used. MDC is a marker of autophagosomes and lysosomes and results in blue fluorescence. As a positive control for autophagy, MCF-7 cells were incubated with 1 nM rapamycin (Sigma-Aldrich) for 30 min/37°C, which is an established inducer of autophagy. Annexin V has high affinity to phosphatidylserine, which is translocated to the surface of both early- and late-stage apoptotic cells. […]

CO[C@H]1C[C@@H]2CC[C@@H](C)[C@@](O)(O2)C(=O)C(=O)N2CCCC[C@H]2C(=O)O[C@H]([C@H](C)C[C@@H]2CC[C@@H](O)[C@H](OC)C2)CC(=O)[C@H](C)/C=C(\C)[C@@H](O)[C@@H](OC)C(=O)[C@H](C)C[C@H](C)/C=C/C=C/C=C/1C [rapamycin, reference compound]
Staining for autophagy/apoptosis/necrosis (MDC, annexin V-FITC, propidium iodide): enlarged cells with ample granular, cytoplasmic MDC staining

Reference: article PMC4604124, “In Vitro Characterization of the Pharmacological Properties of the Anti-Cancer Chelator, Bp4eT, and Its Phase I Metabolites” (PLoS ONE, 2015)
